Experiments:
[1] = target: AP2-associated protein kinase 1 (Homo sapiens, UniProt Q2M2I8); assay: Selectivity interaction (KinomeScan (DiscoverX)) EUB0001049a AAK1; settings: at 1 µM
[2] = target: Serine/threonine-protein kinase PAK 3 (Homo sapiens) (UniProt O75914); assay: Selectivity interaction (KinaseProfiler screening (Millipore)) EUB0000601a PAK3; settings: at 3 µM
[3] = target: Histone-lysine N-methyltransferase SETD2 (Homo sapiens) (UniProt Q9BYW2); settings: at 1 µM
[4] = target: Phosphatidylinositol 4-phosphate 5-kinase type-1 alpha (Homo sapiens) (UniProt Q99755); assay: Selectivity interaction (KinomeScan (DiscoverX)) EUB0000229b PIP5K1A; settings: at 10 µM
[5] = target: Cyclin-dependent kinase 5 (Homo sapiens, UniProt Q00535); assay: Selectivity interaction (KinomeScan (DiscoverX)) EUB0000229b CDK5; settings: at 10 µM
[6] = target: RAC-beta serine/threonine-protein kinase (Homo sapiens) (UniProt P31751); assay: Selectivity interaction (Kinase panel (KiNativ target engagement assay in Jurkat cells)) EUB0001635a AKT2; assay type: cell-based; settings: at 1 µM
[7] = target: eIF-2-alpha kinase GCN2 (Homo sapiens) (UniProt Q9P2K8); assay: Selectivity interaction (Kinase panel (KiNativ target engagement assay in Jurkat cells)) EUB0001635a EIF2AK4; assay type: cell-based; settings: at 1 µM
[8] = target: Cyclin-dependent kinase 9 (Homo sapiens, UniProt P50750); assay: Selectivity interaction (Kinase panel (Invitrogen)) EUB0000639a CDK9; settings: at 200 nM
[9] = target: Calcium/calmodulin-dependent protein kinase type 1 (Homo sapiens) (UniProt Q14012); assay: Selectivity interaction (Kinase panel (Invitrogen)) EUB0000639a CAMK1; settings: at 200 nM
SRSF protein kinase 1 = SRSF protein kinase 1 (Homo sapiens, UniProt Q96SB4); assay: Selectivity interaction (ActivX KiNativ screen (kinase selectivity in THP-1 cell lysates)) EUB0000639a SRPK1; assay type: subcellular; settings: lysate, at 1 µM
[10] = target: T1, Dual specificity mitogen-activated protein kinase kinase 7 (Homo sapiens) (UniProt O14733); assay: Selectivity interaction (Ambit KINOMEscan and KiNATiv profiling in Jurkat cells) EUB0000090b MAP2K7; assay type: cell-based; settings: at 1 µM
T1 sequence (whole entry): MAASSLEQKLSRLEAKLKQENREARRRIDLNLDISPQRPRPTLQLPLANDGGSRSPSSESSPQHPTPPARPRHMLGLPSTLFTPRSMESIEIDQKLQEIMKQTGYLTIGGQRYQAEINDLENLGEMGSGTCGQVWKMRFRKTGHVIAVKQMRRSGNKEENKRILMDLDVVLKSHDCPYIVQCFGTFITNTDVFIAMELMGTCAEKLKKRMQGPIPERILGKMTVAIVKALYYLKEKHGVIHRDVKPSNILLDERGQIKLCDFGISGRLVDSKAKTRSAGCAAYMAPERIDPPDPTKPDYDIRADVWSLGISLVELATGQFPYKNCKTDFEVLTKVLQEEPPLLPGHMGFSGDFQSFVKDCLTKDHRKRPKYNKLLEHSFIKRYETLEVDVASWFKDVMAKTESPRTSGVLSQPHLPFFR

[11] = target: T2, N-lysine methyltransferase KMT5A (Homo sapiens) (UniProt Q9NQR1); assay: Selectivity interaction (Methyltransferase screen (Scintillation proximity assays)) EUB0000255b SETD8
T2 sequence (whole entry): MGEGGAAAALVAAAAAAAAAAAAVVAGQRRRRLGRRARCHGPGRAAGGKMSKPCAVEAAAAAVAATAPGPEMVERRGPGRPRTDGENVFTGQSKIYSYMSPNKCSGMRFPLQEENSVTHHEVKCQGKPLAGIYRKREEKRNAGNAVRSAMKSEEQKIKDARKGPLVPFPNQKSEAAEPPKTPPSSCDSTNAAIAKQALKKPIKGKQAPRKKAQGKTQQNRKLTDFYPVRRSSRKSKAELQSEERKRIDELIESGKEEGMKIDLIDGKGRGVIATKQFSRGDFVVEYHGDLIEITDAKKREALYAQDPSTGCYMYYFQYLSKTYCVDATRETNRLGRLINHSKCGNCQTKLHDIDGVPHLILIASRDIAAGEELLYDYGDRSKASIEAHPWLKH

[12] = target: Tyrosine-protein kinase Fyn (Homo sapiens) (UniProt P06241); settings: at 10 µM
[13] = target: Dual specificity mitogen-activated protein kinase kinase 1 (Homo sapiens, UniProt Q02750); assay: Selectivity interaction (ActivX KiNativ screen (ex vivo kinase selectivity in human PBMCs)) EUB0001619a MAP2K1; assay type: cell-based; settings: PBMC, at 1 µM
[14] = target: Insulin receptor-related protein (Homo sapiens) (UniProt P14616); assay: Selectivity interaction (Upstate Kinase Profiler service (Millipore)) EUB0000056c INSRR; settings: at 1 µM
[15] = target: T3, Serine/threonine-protein kinase NLK (Homo sapiens) (UniProt Q9UBE8); assay: Selectivity interaction (KinomeScan (DiscoverX)) EUB0000695a NLK; settings: at 100 nM
T3 sequence (whole entry): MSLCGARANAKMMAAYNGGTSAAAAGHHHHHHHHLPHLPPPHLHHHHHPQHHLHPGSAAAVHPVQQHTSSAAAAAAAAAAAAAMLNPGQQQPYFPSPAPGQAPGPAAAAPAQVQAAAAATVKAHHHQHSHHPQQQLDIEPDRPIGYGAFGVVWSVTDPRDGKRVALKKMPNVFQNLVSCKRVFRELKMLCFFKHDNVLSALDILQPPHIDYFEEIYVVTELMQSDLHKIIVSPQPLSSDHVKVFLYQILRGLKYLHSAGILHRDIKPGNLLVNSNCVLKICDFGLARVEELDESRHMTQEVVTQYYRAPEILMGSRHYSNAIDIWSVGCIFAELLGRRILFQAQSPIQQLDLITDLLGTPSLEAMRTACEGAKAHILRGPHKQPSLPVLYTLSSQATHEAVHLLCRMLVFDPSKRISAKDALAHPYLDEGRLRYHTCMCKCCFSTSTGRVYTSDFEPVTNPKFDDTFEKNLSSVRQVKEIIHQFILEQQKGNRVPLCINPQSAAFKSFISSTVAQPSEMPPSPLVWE

[16] = target: DNA-dependent protein kinase catalytic subunit (Homo sapiens) (UniProt P78527); assay: Selectivity interaction (ProQinase) EUB0000171b PRKDC

Sequence of eIF-2-alpha kinase GCN2 (Homo sapiens) (Q9P2K8 whole entry): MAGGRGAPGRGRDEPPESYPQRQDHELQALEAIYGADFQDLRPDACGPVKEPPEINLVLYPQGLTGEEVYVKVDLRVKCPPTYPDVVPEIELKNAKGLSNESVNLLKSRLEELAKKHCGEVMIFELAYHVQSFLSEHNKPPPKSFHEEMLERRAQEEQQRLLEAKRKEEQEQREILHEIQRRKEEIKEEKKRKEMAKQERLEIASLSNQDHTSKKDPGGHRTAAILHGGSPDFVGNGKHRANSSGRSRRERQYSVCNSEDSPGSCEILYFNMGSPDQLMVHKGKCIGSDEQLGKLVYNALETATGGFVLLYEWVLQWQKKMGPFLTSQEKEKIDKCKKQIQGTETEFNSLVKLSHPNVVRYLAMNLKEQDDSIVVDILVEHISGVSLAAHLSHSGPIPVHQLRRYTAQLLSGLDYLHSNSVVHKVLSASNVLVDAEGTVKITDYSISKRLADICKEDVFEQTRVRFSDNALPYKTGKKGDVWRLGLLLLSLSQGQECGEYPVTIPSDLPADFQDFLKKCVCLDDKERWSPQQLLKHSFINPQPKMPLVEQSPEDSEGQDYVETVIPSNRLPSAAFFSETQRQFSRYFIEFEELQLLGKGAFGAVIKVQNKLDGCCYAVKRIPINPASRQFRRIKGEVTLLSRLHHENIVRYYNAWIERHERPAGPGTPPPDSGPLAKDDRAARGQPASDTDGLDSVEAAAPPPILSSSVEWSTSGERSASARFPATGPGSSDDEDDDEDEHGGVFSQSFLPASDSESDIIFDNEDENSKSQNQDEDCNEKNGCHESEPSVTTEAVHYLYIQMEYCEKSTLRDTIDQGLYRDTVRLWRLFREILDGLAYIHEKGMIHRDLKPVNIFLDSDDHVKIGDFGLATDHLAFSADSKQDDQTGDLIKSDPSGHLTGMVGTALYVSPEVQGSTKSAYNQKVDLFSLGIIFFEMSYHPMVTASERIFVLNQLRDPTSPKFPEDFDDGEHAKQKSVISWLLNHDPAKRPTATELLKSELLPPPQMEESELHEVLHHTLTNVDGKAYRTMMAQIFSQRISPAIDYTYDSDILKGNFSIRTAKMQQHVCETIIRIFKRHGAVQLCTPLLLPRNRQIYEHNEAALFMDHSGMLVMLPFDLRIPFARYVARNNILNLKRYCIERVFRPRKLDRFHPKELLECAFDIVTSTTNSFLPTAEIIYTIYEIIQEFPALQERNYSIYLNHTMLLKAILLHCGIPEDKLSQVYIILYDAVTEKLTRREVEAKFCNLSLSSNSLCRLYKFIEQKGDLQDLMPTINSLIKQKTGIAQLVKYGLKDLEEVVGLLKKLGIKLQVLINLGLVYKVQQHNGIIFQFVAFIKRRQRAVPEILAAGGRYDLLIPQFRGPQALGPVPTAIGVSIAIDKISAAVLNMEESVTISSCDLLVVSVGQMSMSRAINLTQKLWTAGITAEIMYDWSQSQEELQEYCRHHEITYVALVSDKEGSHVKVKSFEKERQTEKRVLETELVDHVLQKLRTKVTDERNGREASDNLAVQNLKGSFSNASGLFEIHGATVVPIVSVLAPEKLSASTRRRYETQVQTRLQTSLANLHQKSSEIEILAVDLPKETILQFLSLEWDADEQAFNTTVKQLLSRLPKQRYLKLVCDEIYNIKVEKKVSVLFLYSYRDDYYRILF
Sequence of Insulin receptor-related protein (Homo sapiens) (P14616 27-742 limits assumed): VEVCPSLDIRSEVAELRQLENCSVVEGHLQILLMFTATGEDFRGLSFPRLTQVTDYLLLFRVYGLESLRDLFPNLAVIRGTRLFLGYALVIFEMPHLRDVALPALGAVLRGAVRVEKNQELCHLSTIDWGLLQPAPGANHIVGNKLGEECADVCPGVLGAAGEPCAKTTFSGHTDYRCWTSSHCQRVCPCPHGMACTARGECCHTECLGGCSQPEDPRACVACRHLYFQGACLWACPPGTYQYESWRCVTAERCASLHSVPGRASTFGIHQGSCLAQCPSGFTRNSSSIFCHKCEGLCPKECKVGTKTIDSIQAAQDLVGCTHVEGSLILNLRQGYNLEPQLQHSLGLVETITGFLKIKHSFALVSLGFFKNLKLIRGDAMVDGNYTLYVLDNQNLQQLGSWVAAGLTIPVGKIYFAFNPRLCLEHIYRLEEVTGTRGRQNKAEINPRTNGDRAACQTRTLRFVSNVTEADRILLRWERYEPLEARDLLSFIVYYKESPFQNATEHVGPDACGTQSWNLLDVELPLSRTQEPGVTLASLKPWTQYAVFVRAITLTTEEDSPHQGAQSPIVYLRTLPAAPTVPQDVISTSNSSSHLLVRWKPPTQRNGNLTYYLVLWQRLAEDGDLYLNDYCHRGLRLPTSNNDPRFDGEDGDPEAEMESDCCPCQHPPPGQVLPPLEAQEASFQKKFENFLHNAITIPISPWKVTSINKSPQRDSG
Sequence of Insulin receptor-related protein (Homo sapiens) (P14616 747-1297 limits assumed): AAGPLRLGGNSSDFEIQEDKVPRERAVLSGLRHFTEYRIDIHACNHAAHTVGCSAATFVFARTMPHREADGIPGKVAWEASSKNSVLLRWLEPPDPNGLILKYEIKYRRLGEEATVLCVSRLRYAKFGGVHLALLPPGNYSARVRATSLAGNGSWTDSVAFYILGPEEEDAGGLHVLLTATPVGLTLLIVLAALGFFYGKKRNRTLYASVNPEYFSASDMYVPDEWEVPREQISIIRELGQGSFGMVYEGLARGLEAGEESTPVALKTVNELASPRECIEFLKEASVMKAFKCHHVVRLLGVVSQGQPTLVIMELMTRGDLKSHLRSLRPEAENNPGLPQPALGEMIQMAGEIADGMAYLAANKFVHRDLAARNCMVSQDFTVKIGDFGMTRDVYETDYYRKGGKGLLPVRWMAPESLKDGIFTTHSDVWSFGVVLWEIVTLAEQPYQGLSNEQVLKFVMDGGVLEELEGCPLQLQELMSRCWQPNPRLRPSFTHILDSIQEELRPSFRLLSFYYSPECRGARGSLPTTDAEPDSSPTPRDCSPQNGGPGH
Sequence of SRSF protein kinase 1 (Q96SB4 whole entry): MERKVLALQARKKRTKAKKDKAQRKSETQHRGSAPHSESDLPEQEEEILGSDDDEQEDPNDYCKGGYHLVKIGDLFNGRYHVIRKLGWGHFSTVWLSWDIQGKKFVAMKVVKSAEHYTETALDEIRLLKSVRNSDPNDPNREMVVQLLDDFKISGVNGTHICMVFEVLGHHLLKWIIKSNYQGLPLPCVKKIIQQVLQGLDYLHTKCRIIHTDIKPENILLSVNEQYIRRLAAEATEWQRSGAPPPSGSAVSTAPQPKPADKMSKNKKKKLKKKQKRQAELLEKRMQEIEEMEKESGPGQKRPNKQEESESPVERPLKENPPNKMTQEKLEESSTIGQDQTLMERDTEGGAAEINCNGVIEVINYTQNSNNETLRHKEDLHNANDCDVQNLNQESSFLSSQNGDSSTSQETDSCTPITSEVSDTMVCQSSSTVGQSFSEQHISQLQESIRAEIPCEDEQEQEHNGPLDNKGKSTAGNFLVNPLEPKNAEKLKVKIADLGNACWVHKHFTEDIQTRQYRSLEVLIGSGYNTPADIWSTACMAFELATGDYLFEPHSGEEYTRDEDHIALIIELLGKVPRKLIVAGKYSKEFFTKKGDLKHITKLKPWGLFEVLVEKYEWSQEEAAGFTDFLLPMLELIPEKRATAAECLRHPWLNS
Sequence of Calcium/calmodulin-dependent protein kinase type 1 (Homo sapiens) (Q14012 whole entry, looked up): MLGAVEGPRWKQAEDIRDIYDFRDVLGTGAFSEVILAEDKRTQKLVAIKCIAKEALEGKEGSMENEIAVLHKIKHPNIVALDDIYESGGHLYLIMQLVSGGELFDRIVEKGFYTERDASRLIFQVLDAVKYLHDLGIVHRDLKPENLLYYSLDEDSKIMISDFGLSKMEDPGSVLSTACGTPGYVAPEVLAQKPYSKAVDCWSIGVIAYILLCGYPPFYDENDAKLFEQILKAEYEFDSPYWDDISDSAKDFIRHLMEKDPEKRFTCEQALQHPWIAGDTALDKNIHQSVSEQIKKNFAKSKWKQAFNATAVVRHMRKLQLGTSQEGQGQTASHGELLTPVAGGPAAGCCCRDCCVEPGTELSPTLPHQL
Sequence of AP2-associated protein kinase 1 (Q2M2I8 whole entry, looked up): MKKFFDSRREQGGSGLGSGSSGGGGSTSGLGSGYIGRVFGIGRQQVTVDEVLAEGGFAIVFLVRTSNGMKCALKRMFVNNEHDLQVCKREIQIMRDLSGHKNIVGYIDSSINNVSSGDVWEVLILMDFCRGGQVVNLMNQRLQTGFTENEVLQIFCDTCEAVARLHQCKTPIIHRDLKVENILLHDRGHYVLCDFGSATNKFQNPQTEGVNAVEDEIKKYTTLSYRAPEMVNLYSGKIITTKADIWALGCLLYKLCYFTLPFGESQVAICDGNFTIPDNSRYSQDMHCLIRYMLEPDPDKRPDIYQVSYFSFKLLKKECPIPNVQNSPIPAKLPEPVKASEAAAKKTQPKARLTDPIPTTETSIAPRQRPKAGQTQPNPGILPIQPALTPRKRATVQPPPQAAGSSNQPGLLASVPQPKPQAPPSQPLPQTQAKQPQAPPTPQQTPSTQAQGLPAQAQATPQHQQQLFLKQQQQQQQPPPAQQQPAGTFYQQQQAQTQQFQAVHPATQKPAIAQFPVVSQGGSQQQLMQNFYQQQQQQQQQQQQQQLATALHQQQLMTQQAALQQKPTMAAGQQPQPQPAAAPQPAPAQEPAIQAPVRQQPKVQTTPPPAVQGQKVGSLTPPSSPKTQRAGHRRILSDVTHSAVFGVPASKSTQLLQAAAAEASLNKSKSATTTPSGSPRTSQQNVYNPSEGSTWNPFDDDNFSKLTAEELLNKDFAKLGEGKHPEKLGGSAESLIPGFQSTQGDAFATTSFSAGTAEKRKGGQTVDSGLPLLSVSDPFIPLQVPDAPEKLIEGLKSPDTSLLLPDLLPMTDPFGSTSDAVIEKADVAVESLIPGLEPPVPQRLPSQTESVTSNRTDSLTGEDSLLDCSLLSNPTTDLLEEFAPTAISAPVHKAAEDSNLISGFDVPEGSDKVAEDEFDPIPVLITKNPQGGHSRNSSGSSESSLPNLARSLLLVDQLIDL

## COc1cc(Nc2nc(C)cc(-c3cnn4nc(OC)ccc34)n2)cc(C(F)(F)F)c1
[1]
  % of control: 96%

## CCc1cc(Nc2nccc(-c3c(-c4ccc(OC)c(C(=O)Nc5c(F)cccc5F)c4)nc4ccccn34)n2)c(OC)cc1N1CCC(N2CCN(S(C)(=O)=O)CC2)CC1
[2]
  % of inhibition: 53%

## CNCCN1CCC(c2cc(CN(C)C(=O)c3cccc(Oc4ccccc4)c3)ccn2)CC1
[3]
  % activity: > 90%

## COc1cc(N(C)c2ccnc3ccc(C(F)(F)F)cc23)cc(OC)c1OC
[4]
  % binding: 76%
[5]
  % binding: 97%

## C=CC(=O)Nc1ccc(C(=O)Nc2[nH]nc3c2CN(C(=O)N[C@H](CN(C)C)c2ccccc2)C3(C)C)cc1
[6]
  % of engagement: -11.1%
[7]; Selectivity number of off-targets 0.0, Selectivity number of targets 233.0, Source Knowledge https://www.sciencedirect.com/science/article/pii/S2451945619300674?via%3Dihub
  % of engagement: -7.2%
[7]
  % of engagement: -16.6%

## CC[C@@H]1[C@H](F)C(=O)N[C@@H]1COc1nccc2cc(C(N)=O)c(OC)cc12 [ZIMLOVISERTIB]
[8]
  % of inhibition: 4.37%
[9]
  % of inhibition: -15.3%
SRSF protein kinase 1
  % of inhibition: 0.5%

## CN(C)C/C=C/C(=O)Nc1ccc(C(=O)N2CCCC(Nc3ncc(Cl)c(-c4c[nH]c5ccccc45)n3)C2)cc1 (stereo not given)
[10]
  % of control: 100%

## COCCN1CCC(c2cc(CN(C)C(=O)c3cccc(Oc4ccccc4)c3)ccn2)CC1
[11]; at 1 µM
  % activity: > 95%
[11]; at 10 µM
  % activity: > 85%

## Cc1cc([C@@H](C)Nc2ccccc2C(=O)O)c2nc(N3CCOCC3)cc(=O)n2c1 [AZD-6482]
[12]
  % of control: 100%

## N#Cc1cccc(-c2c[nH]c3ncnc(N4CCOCC4)c23)c1
[13]
  % of inhibition: 14%

## Cc1ccc(-c2ccc3c(ccc4sc5c(c43)NC[C@@H](C)NC5=O)n2)cn1
[14]
  % of inhibition: -8%

## Cc1cc(F)c(C(=O)Nc2cccc(-c3nncn3C(C)C)n2)cc1-n1cnc(C2CC2)c1
[15]
  % of control: 96%

## C=CC(=O)Nc1cccc(C(=O)Nc2ccc(Nc3cc(-c4[nH]c(SC)nc4C)ccn3)cc2)c1
[16]; at 1 µM
  % of control: 92%
[16]; at 5 µM
  % of control: 103%
